Test results as given in publication doi:10.1101/2024.05.17.594698v1 (bioRxiv, 2024).
Where a SMILES comes first, the peptide text is derived from it.

Experiments:
[1] = system: primary T cell sMAC composed of sestrin and MAPK kinases; test: Biotinylated DOS pull down from human CD4+ T cell extracts; format: binding; settings: overnight treatment, streptavidin IP, western blot, Fig 1H
[2] = target: AMPK1-His-tagged (Homo sapiens, UniProt Q13131); test: In vitro pull down with biotinylated DOS, recombinant tagged proteins; format: binding; settings: DOS-biotin 10 µM, streptavidin beads; Fig 1C
AMPK1-His-tagged, sequence (Q13131 whole entry): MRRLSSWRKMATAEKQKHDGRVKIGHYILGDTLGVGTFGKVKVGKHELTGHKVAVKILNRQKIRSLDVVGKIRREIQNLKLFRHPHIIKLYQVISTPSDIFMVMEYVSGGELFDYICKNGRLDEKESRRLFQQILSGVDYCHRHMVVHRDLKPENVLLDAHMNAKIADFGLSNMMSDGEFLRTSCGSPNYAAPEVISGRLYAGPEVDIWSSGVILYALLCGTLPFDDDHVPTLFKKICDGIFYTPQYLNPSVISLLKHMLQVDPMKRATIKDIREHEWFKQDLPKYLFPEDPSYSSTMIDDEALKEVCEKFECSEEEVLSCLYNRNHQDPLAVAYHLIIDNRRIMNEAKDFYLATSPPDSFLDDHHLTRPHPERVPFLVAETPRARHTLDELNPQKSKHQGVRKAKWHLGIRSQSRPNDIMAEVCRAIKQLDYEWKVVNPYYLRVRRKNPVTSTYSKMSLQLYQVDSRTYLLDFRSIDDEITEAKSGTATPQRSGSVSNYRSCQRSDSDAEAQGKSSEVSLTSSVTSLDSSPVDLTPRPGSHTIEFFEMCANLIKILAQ

[3] = target: T1, GATOR/mTOR complex proteins (MIOS and WDR59) (Homo sapiens, UniProt Q6PJI9+Q9NXC5); test: Biotinylated DOS pull down from human CD4+ T cell extracts; format: binding; settings: overnight treatment, streptavidin IP, western blot, Fig 1H
T1 sequence (Q9NXC5 1-875): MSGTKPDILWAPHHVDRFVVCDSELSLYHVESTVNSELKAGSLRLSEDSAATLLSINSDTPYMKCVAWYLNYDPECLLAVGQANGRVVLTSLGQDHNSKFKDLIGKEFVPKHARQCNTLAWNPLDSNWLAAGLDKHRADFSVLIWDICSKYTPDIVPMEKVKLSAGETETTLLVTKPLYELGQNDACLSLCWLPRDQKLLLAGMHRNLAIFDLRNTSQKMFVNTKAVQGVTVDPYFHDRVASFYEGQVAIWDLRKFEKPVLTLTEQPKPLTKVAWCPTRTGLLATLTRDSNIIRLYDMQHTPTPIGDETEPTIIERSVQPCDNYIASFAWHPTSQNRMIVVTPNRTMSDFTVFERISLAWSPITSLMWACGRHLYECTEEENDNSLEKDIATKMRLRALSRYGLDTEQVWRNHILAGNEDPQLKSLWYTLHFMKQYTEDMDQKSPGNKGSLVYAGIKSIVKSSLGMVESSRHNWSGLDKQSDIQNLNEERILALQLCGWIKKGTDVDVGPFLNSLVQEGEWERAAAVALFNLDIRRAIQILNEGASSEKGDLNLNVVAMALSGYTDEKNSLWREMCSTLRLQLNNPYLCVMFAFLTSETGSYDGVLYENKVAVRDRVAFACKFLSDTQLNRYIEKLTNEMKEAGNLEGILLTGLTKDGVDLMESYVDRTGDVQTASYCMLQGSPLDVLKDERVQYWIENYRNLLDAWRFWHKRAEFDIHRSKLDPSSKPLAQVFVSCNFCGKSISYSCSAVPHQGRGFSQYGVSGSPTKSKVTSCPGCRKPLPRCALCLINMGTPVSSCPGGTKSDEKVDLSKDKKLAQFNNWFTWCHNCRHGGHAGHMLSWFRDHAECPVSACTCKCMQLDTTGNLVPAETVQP
T1 sequence (Q6PJI9 1-974): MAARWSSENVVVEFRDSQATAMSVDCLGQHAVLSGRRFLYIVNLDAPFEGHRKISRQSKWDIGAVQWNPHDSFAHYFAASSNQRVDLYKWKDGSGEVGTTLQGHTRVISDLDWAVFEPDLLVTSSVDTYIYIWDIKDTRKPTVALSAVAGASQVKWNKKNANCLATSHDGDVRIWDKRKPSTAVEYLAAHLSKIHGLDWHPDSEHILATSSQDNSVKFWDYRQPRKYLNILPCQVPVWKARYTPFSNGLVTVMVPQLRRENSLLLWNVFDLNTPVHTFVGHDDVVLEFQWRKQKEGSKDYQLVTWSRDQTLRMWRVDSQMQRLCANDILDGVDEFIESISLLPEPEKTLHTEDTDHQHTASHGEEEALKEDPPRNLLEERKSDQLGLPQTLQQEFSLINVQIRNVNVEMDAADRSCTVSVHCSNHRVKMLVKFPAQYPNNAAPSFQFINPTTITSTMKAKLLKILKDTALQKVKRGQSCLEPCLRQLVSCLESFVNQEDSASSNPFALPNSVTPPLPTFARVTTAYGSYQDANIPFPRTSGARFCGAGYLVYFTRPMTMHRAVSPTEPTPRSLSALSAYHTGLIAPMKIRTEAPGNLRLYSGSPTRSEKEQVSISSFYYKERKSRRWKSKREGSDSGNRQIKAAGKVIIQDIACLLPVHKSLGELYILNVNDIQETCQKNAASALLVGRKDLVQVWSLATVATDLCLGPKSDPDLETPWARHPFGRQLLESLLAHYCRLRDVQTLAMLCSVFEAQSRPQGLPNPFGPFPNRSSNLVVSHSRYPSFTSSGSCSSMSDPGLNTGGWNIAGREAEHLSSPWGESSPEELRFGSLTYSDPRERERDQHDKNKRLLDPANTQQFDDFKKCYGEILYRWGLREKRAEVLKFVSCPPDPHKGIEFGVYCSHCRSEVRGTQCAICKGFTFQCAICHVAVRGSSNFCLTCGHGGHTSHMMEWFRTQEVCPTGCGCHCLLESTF

[4] = system: primary human CD4+ T cells; test: DOS-FITC incorporation by flow cytometry; format: cell-based; settings: T cells depleted of all three sestrins by shRNAs; Fig 1F
[5] = system: telomerase in human CD4+ Tsen; test: Telomerase activity; format: cell-based; settings: Tsen 3 days after DOS treatment; Fig S4I, n = 5 donors
[6] = Observation of autoimmunity in pre-clinical cohorts; format: in vivo; settings: large pre-clinical cohorts (over 400 animals)
[7] = system: AMPK in human CD4+ Tsen; test: AMPK activity as ACC phosphorylation; format: cell-based; settings: 4 hours after DOS 10 µM treatment; Fig S3I right, blot number
[8] = target: T2, ERK, JNK and p38 MAPK in Tsen sestrin 2 immunoprecipitates (sMACs) (Homo sapiens, UniProt P58004); test: ELISA-based in vitro kinase assay on sestrin 2 immunoprecipitates; format: biochemical; settings: DOS 10 µM, 30 minutes, ATP 200 μM; Fig 1I, n = 5 donors
T2 sequence (P58004 1-480): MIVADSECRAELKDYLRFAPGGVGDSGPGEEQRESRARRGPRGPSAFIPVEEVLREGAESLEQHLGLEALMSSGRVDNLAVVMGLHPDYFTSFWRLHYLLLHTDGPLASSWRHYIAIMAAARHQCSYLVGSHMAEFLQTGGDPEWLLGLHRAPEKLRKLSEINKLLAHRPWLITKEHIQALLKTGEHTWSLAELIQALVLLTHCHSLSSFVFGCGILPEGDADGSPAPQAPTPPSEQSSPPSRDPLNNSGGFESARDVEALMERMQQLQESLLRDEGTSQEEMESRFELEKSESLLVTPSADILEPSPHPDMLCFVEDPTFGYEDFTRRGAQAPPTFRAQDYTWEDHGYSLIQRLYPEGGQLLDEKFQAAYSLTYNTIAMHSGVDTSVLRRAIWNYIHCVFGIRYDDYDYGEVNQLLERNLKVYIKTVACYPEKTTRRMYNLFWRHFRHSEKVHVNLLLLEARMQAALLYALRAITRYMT

[9] = system: recombinant sestrins (sestrin1-FLAG, sestrin2-FLAG); test: In vitro pull down with biotinylated DOS, recombinant tagged proteins; format: binding; settings: DOS-biotin 10 µM, streptavidin beads, anti-flag immunoblot; Fig 1C
[10] = system: human CD4+ T cells; test: Cellular toxicity by Annexin V / PI staining; format: cell-based; settings: DOS 10 µM; Fig S4J, n = 4 donors
[11] = system: H1N1 virus; settings: mouse, in vivo

CC[C@H](C)[C@@H]1NC(=O)[C@H](Cc2ccccc2)NC(=O)[C@H](C)NC(=O)[C@H](C(C)C)NC(=O)[C@@H]2CCCN2C1=O [DOS] (cyclo(AFIPV))
Binding to primary T cell sMAC [1]: directly bound
Direct binding to recombinant AMPK [2]: not AMPK
Binding to GATOR/mTOR complex proteins [3]: not to GATOR/mTOR complex proteins
DOS entrance in sestrin-null T cells [4]: did not enter
Telomerase activity [5]: not affected
Spontaneous autoimmunity [6]: yet to see any autoimmunity case
p-ACC/ACC by immunoblotting, fold change to untreated control set as 1 [7]: 0.25
ERK, JNK and p38 MAPK kinase activity (autophosphorylation) in sMAC [8]: suppressed
Direct binding to recombinant sestrins [9]: direct DOS binding to sestrins
Cell damage or death (Annexin-propidium iodide staining) [10]: did not cause cell damage or death
Lung necrosis after H1N1 infection [11]: no sign of lung necrosis
